According to patent US6451571B1, “Thymidine kinase mutants” (University of Washington, priority 1994, dated 2002):

Experiments:
[1] = Time course analysis of thymidine phosphorylation by cell-free translation products; assay type: biochemical; details: for TK activity (thymidine phosphorylation) in time course compared to wild-type TK: cell-free translation products, 30° C., adjusted to protein synthesis levels; for classification on the basis of TK activities: high-activity or low-activity subset
Procedure: The transcripts described above were then used in a rabbit reticulocyte lysate cell-free translation system to synthesize active enzymes. Cell-free translation was according to Promega using nuclease-treated rabbit reticulocyte lysates.
For the high-activity mutant enzymes, unlabeled translation products were diluted 1/9 and incubated for 0, 5, 10, 20, or 30 minutes at 30° C. The TK activity results (counts per minute) were adjusted to reflect equivalent protein synthesis levels using the corresponding TCA-precipitable counts (^35S cpm).
The low-activity mutants were diluted 1/5, and the rate of phosphorylation as a function of time was also determined.

[2] = assay type: biochemical; details: for thermal stability compared to HSVTKII after 42° C. preincubation: cell-free translation products
Procedure: To substantiate this observation, cell-free translation products were incubated at 42° C. for increasing times prior to being assayed for enzyme activity. Briefly, cell free translation (“CFT”) products of each high-activity mutant, -RNA, and HSVTKII samples were diluted 1/9 and incubated for 0, 5, 10, and 20 minutes at 42° C. The preincubated samples were then assayed for 5 minutes (P155A/F161V and F161I) or 20 minutes (-RNA, HSVTKII, F161C, and D162E). The percent of activity remaining was determined with the untreated samples set at 100%. […] Because F161C lost greater than 90% of enzyme activity within the first 20 minutes at 42° C., shorter incubation periods at 42° C. were performed (0, 5, 10, and 20 minutes).
Low-activity mutant CFT products were diluted 1/5 and incubated for 0, 20, 40, or 60 minutes at 42° C. The preincubated samples were then assayed in triplicate for the thymidine phosphorylation for 60 minutes. The percent of activity remaining was determined using the untreated (time 0) sample as 100%.

[3] = Substrate specificity assay, ACV; assay type: biochemical; details: cell-free translation products, 2 hours at 30° C.
Procedure: (§1) Three of the mutants (P155A/F161V, F161I and F161C) were assayed in triplicate for the relative levels of phosphorylation using thymidine, deoxycytidine, ACV, GCV, or AZT as substrates. Briefly, forty-eight […] of each tritiated substrate was used in each assay reaction. Translation products were diluted for each nucleoside assay as follows (translation/H2O). 1/100, thymidine; 2/3, deoxycytidine, GCV, and AZT; 4/1, ACV. Each set of assays was incubated for 2 hours at 30° C. and the amount of phosphorylated product determined.

[4] = test system: E. coli KY895; assay: Secondary screen: colony formation on acyclovir, AZT, LB and TK selection plates; assay type: cell-based; parameters: key to ACV / AZT / LB / 37° C. / 42° C.: ++: the same number of colonies were observed as compared to control plates; +: fewer (<20% those observed with pMCC) and generally smaller (˜50% smaller diameter) colonies were observed as compared to control plates; −: no colonies were observed; details: for utilization of nucleoside analogues over thymidine in comparison to the wild-type: ACV and AZT plates; for AZT: colonies on AZT plates: 1 μg/mL thymidine + 0.05 μg/mL AZT; for AZT / ACV: 37° C.; for LB: colonies on LB+carb50 plates; for 37° C.: colonies on TK selection plates at 37° C.; for 42° C.: colonies on TK selection plates at 42° C.; for ACV: colonies on acyclovir plates: 1 μg/mL thymidine + 1 μg/mL acyclovir
Procedure: The ability of pMCC (KY895) and 35 log-phase mutant pMDC (KY895) cultures to produce colonies on acyclovir (“ACV”) or AZT plates was determined in a secondary screen as described below. Briefly, log-phase cultures of TK positive clones were serially diluted in 0.9% NaCl and spread onto acyclovir or AZT plates (TK selection plates except 1 μ/mL thymidine+1 μg/mL acyclovir or 0.05 μg/mL AZT). Mutant cultures were also spread onto duplicate TK selection and LB+carb^50 plates. One set of TK selection plates and LB+carb^50 plates were incubated at 42° C. All other plates were incubated at 37° C. After 16-24 hours the plates were scored.
Briefly, only mutants that gave results which differed from those observed with the wild-type pMCC (KY895) are shown.

[5] = Substrate specificity assay, deoxycytidine; assay type: biochemical; details: cell-free translation products, 2 hours at 30° C.
Procedure: as §1

[6] = Substrate specificity assay, thymidine; assay type: biochemical; details: cell-free translation products, 2 hours at 30° C.
Procedure: as §1

| Substance | TK activity (thymidine phosphorylation) in time course compared to wild-type TK [1] | classification on the basis of TK activities [1] | thermal stability compared to HSVTKII after 42° C. preincubation [2] | phosphorylation of ACV over HSVTKII [3] | utilization of nucleoside analogues over thymidine in comparison to the wild-type [4] | AZT [4] | LB [4] | 37° C. [4] | 42° C. [4] | ACV [4] | phosphorylation of deoxycytidine over the wild-type enzyme [5] | activity loss after only 5 minutes at 42° C. ([2]; cell-free translation product) | loss of enzyme activity within the first 20 minutes at 42° C. ([2]; cell-free translation product) | phosphorylation of thymidine relative to HSVTKII [6] | ability to form colonies on TK selection plates at 42° C. [4] |
| --- | --- | --- | --- | --- | --- | --- | --- | --- | --- | --- | --- | --- | --- | --- | --- |
| D162E | no difference in activities when compared to the wild-type TK | high-activity |  |  |  |  |  |  |  |  |  |  |  |  |  |
| D162G |  | low-activity | equivalent to HSVTKII |  |  |  |  |  |  |  |  |  |  |  |  |
| F161C | no difference in activities when compared to the wild-type TK | high-activity | exceptionally thermolabile | 2 fold | preferentially utilize one or both nucleoside analogues over thymidine | − | ++ | ++ | ++ | + (fewer (<20% those observed with pMCC) and generally smaller (˜50% smaller diameter) colonies were observed as compared to control plates) | 2.8 fold | ~85% | greater than 90% |  |  |
| F161I | statistically higher affinity for thymidine than the wild-type TK | high-activity |  |  | preferentially utilize one or both nucleoside analogues over thymidine | + (fewer (<20% those observed with pMCC) and generally smaller (˜50% smaller diameter) colonies were observed as compared to control plates) | ++ | ++ | ++ | + (fewer (<20% those observed with pMCC) and generally smaller (˜50% smaller diameter) colonies were observed as compared to control plates) | 1.9 fold |  |  | 2.2 fold |  |
| F161I/R163H |  | low-activity | equivalent to HSVTKII |  |  | ++ | ++ | ++ | + (fewer (<20% those observed with pMCC) and generally smaller (˜50% smaller diameter) colonies were observed as compared to control plates) | ++ |  |  |  |  | severely reduced ability to form colonies |
| F161L | moderate ability to phosphorylate thymidine, albeit at a much reduced rate from HSVTKII | low-activity | more thermolabile that HSVTKII |  |  | ++ | ++ | ++ | − | ++ |  |  |  |  | unable to form colonies |
| P155A/F161V | statistically higher affinity for thymidine than the wild-type TK | high-activity |  | 2.4 fold | preferentially utilize one or both nucleoside analogues over thymidine | + (fewer (<20% those observed with pMCC) and generally smaller (˜50% smaller diameter) colonies were observed as compared to control plates) | ++ | ++ | ++ | ++ | 2.8 fold |  |  | 2.6 fold |  |
| R163P/H164Q |  | low-activity | equivalent to HSVTKII |  | preferentially utilize one or both nucleoside analogues over thymidine | + (fewer (<20% those observed with pMCC) and generally smaller (˜50% smaller diameter) colonies were observed as compared to control plates) | ++ | ++ | − | + (fewer (<20% those observed with pMCC) and generally smaller (˜50% smaller diameter) colonies were observed as compared to control plates) |  |  |  |  | unable to form colonies |
